Test results: patent US10570129B2 (Zoetis Services LLC, priority 2015, dated 2020)

How the values were obtained:
D. immitis microfilariae = assay: Dirofilaria immitis, microfilariae (DiMF) in vitro motility assay; type: cell-based; details: Dirofilaria immitis, 72 h, read-out: DiMF minimally effective dose (MEC)
Haemonchus contortus L3 = assay: microbe, parasite or virus in culture; type: cell-based; details: Haemonchus contortus, 96 h, read-out: HcL3 Minimal Effective Concentration (MEC)

SMILES	minimal effective concentration (D. immitis microfilariae) [µM]	minimal effective concentration (Haemonchus contortus L3) [µM]
CSc1ccc2c(c1)c1c(n2C(=O)NCc2ccnc(Cl)c2)CCN(C/C=C/c2ccc(F)c(F)c2)C1 [Example 446, (E)-N-((2-chloropyridin-4-yl)methyl)-2-(3-(3,4-difluorophenyl)allyl)-8-(methylthio)-1,2,3,4-tetrahydro-5H-pyrido[4,3-b]indole-5-carboxamide]	3.3	0.5
CSc1ccc2c(c1)c1c(n2C(=O)NCc2ccnc(Cl)c2)CCN(C/C=C/c2ccc(Cl)cc2)C1 [Example 447, (E)-2-(3-(4-chlorophenyl)allyl)-N-((2-chloropyridin-4-yl)methyl)-8-(methylthio)-1,2,3,4-tetrahydro-5H-pyrido[4,3-b]indole-5-carboxamide]	3.3	0.5
CSc1ccc2c(c1)c1c(n2C(=O)NCc2ccnc(Cl)c2)CCN(C/C=C/c2ccc(F)cc2)C1 [Example 448, (E)-N-((2-chloropyridin-4-yl)methyl)-2-(3-(4-fluorophenyl)allyl)-8-(methylthio)-1,2,3,4-tetrahydro-5H-pyrido[4,3-b]indole-5-carboxamide]	3.3	1.3
N#Cc1ccc2c(c1)c1c(n2C(=O)NCc2ccnc(O)c2)CCN(C/C=C/c2ccc(Cl)c(Cl)c2)C1 [Example 449, (E)-8-cyano-2-(3-(3,4-dichlorophenyl)allyl)-N-((2-hydroxypyridin-4-yl)methyl)-1,2,3,4-tetrahydro-5H-pyrido[4,3-b]indole-5-carboxamide]	> 100	> 100
N#Cc1ccc2c(c1)c1c(n2C(=O)NCc2ccnc(O)c2)CCN(C/C=C/c2cc(F)c(Cl)c(F)c2)C1 [Example 450, (E)-2-(3-(4-chloro-3,5-difluorophenyl)allyl)-8-cyano-N-((2-hydroxypyridin-4-yl)methyl)-1,2,3,4-tetrahydro-5H-pyrido[4,3-b]indole-5-carboxamide]	100	0.5
N#Cc1ccc2c(c1)c1c(n2C(=O)NCc2ccnc(O)c2)CCN(C/C=C/c2ccc(Br)cc2F)C1 [Example 451, (E)-2-(3-(4-bromo-2-fluorophenyl)allyl)-8-cyano-N-((2-hydroxypyridin-4-yl)methyl)-1,2,3,4-tetrahydro-5H-pyrido[4,3-b]indole-5-carboxamide]	3.3	> 100
N#Cc1ccc2c(c1)c1c(n2C(=O)NCc2ccnc(O)c2)CCN(C/C=C/c2cc(Cl)c(F)c(Cl)c2)C1 [Example 452, (E)-8-cyano-2-(3-(3,5-dichloro-4-fluorophenyl)allyl)-N-((2-hydroxypyridin-4-yl)methyl)-1,2,3,4-tetrahydro-5H-pyrido[4,3-b]indole-5-carboxamide]	> 100	> 100
O=C(NCc1ccnc(O)c1)n1c2c(c3cc(C(F)(F)F)ccc31)CN(C/C=C/c1ccc(F)cc1F)CC2 [Example 453, (E)-2-(3-(2,4-difluorophenyl)allyl)-N-((2-hydroxypyridin-4-yl)methyl)-8-(trifluoromethyl)-1,2,3,4-tetrahydro-5H-pyrido[4,3-b]indole-5-carboxamide]	10	> 100
N#Cc1ccc(/C=C/CN2CCc3c(c4cc(C(F)(F)F)ccc4n3C(=O)NCc3ccnc(O)c3)C2)cc1 [Example 454, (E)-2-(3-(4-cyanophenyl)allyl)-N-((2-hydroxypyridin-4-yl)methyl)-8-(trifluoromethyl)-1,2,3,4-tetrahydro-5H-pyrido[4,3-b]indole-5-carboxamide]	> 100	> 100
CS(=O)(=O)c1ccc2c(c1)c1c(n2C(=O)NCc2ccnc(Cl)c2)CCN(C/C=C/c2ccc(Cl)c(F)c2)C1 [Example 455, (E)-2-(3-(4-chloro-3-fluorophenyl)allyl)-N-((2-chloropyridin-4-yl)methyl)-8-(methylsulfonyl)-1,2,3,4-tetrahydro-5H-pyrido[4,3-b]indole-5-carboxamide]	5.7	0.7
CS(=O)(=O)c1ccc2c(c1)c1c(n2C(=O)NCc2ccnc(Cl)c2)CCN(C/C=C/c2ccc(F)cc2F)C1 [Example 456, (E)-N-((2-chloropyridin-4-yl)methyl)-2-(3-(2,4-difluorophenyl)allyl)-8-(methylsulfonyl)-1,2,3,4-tetrahydro-5H-pyrido[4,3-b]indole-5-carboxamide]	10	1.3
CS(=O)(=O)c1ccc2c(c1)c1c(n2C(=O)NCc2ccnc(Cl)c2)CCN(C/C=C/c2ccc(Cl)cc2)C1 [Example 457, (E)-2-(3-(4-chlorophenyl)allyl)-N-((2-chloropyridin-4-yl)methyl)-8-(methylsulfonyl)-1,2,3,4-tetrahydro-5H-pyrido[4,3-b]indole-5-carboxamide]	10	1
CS(=O)(=O)c1ccc2c(c1)c1c(n2C(=O)NCc2ccnc(Cl)c2)CCN(C/C=C/c2ccc(Cl)c(Cl)c2)C1 [Example 458, (E)-N-((2-chloropyridin-4-yl)methyl)-2-(3-(3,4-dichlorophenyl)allyl)-8-(methylsulfonyl)-1,2,3,4-tetrahydro-5H-pyrido[4,3-b]indole-5-carboxamide]	3.3	5.7
N#Cc1ccc(-c2ccc3c(c2)c2c(n3C(=O)NCc3ccnc(F)c3)CCN(C/C=C/c3ccc(Cl)cc3)C2)cn1 [Example 460, (E)-2-(3-(4-chlorophenyl)allyl)-8-(6-cyanopyridin-3-yl)-N-((2-fluoropyridin-4-yl)methyl)-1,2,3,4-tetrahydro-5H-pyrido[4,3-b]indole-5-carboxamide]	57.4	> 100
O=C(NCc1ccnc(F)c1)n1c2c(c3cc(-c4ccc(Cl)cc4)ccc31)CN(C/C=C/c1ccc(Cl)cc1)CC2 [Example 461, (E)-8-(4-chlorophenyl)-2-(3-(4-chlorophenyl)allyl)-N-((2-fluoropyridin-4-yl)methyl)-1,2,3,4-tetrahydro-5H-pyrido[4,3-b]indole-5-carboxamide]	> 100	33
O=C(NCc1ccnc(F)c1)n1c2c(c3cc(-c4cccc(Cl)c4)ccc31)CN(C/C=C/c1ccc(Cl)cc1)CC2 [Example 462, (E)-8-(3-chlorophenyl)-2-(3-(4-chlorophenyl)allyl)-N-((2-fluoropyridin-4-yl)methyl)-1,2,3,4-tetrahydro-5H-pyrido[4,3-b]indole-5-carboxamide]	> 100	> 100
O=C(NCc1ccnc(F)c1)n1c2c(c3cc(-c4ccc(F)cc4)ccc31)CN(C/C=C/c1ccc(Cl)cc1)CC2 [Example 463, (E)-2-(3-(4-chlorophenyl)allyl)-8-(4-fluorophenyl)-N-((2-fluoropyridin-4-yl)methyl)-1,2,3,4-tetrahydro-5H-pyrido[4,3-b]indole-5-carboxamide]	> 100	> 100
NC(=O)c1ccc2c3c(n(C(=O)NCc4ccnc(Cl)c4)c2c1)CCN(C/C=C/c1ccc(Cl)cc1)C3 [Example 464, (E)-2-(3-(4-chlorophenyl)allyl)-N^5-((2-chloropyridin-4-yl)methyl)-1,2,3,4-tetrahydro-5H-pyrido[4,3-b]indole-5,7-dicarboxamide]	7.6	3.3
